According to article PMC11475369, “Exploring the Potential of Synthetic Cannabinoids: Modulation of Biological Activity of Normal and Cancerous Human Colon Epithelial Cells” (Cells, 2024):

Test system: CCD 841 CoTr cells
Assay: Nitric oxide (NOx) release in CCD 841 CoTr culture, Griess method
Type: cell-based, human
Conditions: CCD 841 CoTr normal cells, 0–200 μg/mL, 24 h
Experimental: In this spectrophotometric method, the stable end products (nitrate and nitrite) were analyzed in the normal and tumor culture supernatants after 24 h of incubation of the cells with the cannabinoids in the concentration range of 0–200 μg/mL. The Griess reaction was applied. This method involves a 2-step reaction, whose product is a red-pink azo dye. The amount of this dye is directly proportional to the amount of NO. The cells were cultured for 24 h in 24-well plates (1 mL/well, density 1 × 10^5 cells/mL); next, after withdrawing the culture fluid, the tested cannabinoids were added to the wells at a volume of 1 mL/well and the incubation was carried out for another 24 h. After the incubation, the culture media were collected and frozen at −80 °C for no longer than 1 month. For calibration and quantitative analysis, the standard curve was prepared using 0.5–25 μM sodium nitrite (NaNO2). Thawed and centrifuged (5000 rpm/5 min.) supernatant samples and the standard were poured into a 96-well flat-bottomed plate at 100 µL/well. Each sample was analyzed in triplicate. Subsequently, 100 µL/well of Griess reagent (1% sulfanilamide/0.1% N-(1-naphthyl)ethylenediamine dihydrochloride) in 3% H3PO4 was added to all wells and incubated at room temperature for 10 min. Finally, the absorbance of the samples was spectrophotometrically read at 570 nm using an EL800 Universal Microplate Reader (BioTek Instruments, Winooski, VT, USA).

Structure (SMILES) | Effect on release of nitric oxide NOx (in words)
CCCCCc1cc2c3c(c1)OC(C)(C)C1CCC(C)(CC31)O2 (centres unmarked) [CBT, cannabicitran] | reduced the level of this molecule
CCCCCc1cc(O)c2c(c1)OC(C)(CCC=C(C)C)C=C2 (centres unmarked) [CBC, cannabichromene] | reduction in NOx levels with increasing cannabinoid concentration
